Source: patent US12692291B2, “Diamine-linked melanocortin receptor-specific cyclic peptides for ocular indications” (Boehringer Ingelheim International GmbH, priority 2020, dated 2026)
*1 amine or outer side, *2 acyl side, *3 side chain or, on linkers, in order; H or OH if unused. Where a SMILES comes first, the peptide text is derived from it. Bridges are numbered along the chain shown (N, C = ends). [ ]: non-standard residue; d: D form. dPhe(4-F) = N[C@H](Cc1ccc(F)cc1)C(=O)O; NH(CH2)4NH = C(CCN[*:2])CN[*:1]; Nle = CCCC[C@H](N)C(=O)O

Experiments:
MC4r = biological target: T1, MC4r (Homo sapiens, UniProt P32245); experiment: cAMP agonist functional assay, recombinant MC4r in HEK-293 cells; assay type: cell-based
T1 construct: expressed in transfected cells; host or cells: HEK-293
Experimental: (§1) Accumulation of intracellular cAMP was examined as a measure of the ability of the peptides to elicit a functional response in either HEK-293 cells that express recombinant MC3r or MC4r or B16-F10 (mouse) and HBL (human) cell lines that express native MC1 r. Confluent cells were detached from culture plates by incubation in enzyme-free cell dissociation buffer. Dispersed cells were suspended in Hank's Balanced Salt Solution containing 10 mM HEPES (pH 7.5), 1 mM MgCl2, 1 mM glutamine, 0.5% albumin and 0.3 mM 3-isobutyl-1-methyl-xanthine (IBMX), a phosphodiesterase inhibitor. The cells were dispensed into 96-well plates at a density of 0.5×10^5 cells per well and pre-incubated for 10 minutes. Cells were exposed for 15 minutes at 37° C. to peptides dissolved in DMSO (final DMSO concentration of 1%) at a concentration range of 0.05-5000 nM in a total assay volume of 200 μL. […] Data analysis was performed by nonlinear regression analysis with Graph-Pad Prism® software.

[1] = Ocular tissue distribution after dosing to the eye, mouse model; assay type: in vivo; conditions: at both 4 and 24 hours after dosing to the eye
Experimental: Peptide No. 60 was evaluated in several stability and pharmacokinetic models.

MC5r [2] = biological target: T2, MC5r (Homo sapiens, UniProt P33032); experiment: CEREP agonist assay, cAMP production by HTRF, MC5 in CHO-K1 cells; assay type: cell-based
Experimental: Evaluation of the agonist activity of compounds at the melanocortin receptors was determined by measuring their effects on cAMP production using the HTRF detection method at CEREP (Eurofins CEREP SA, Celle-Levescault, France). The cells were suspended in HBSS buffer (Invitrogen) complemented with 20 mM HEPES (pH 7.4) and 500 μM IBMX, then distributed in microplates and incubated in the presence of HBSS (basal control), the test compound or the reference agonist. Incubation time, temperature, cell number, reference agonist and cell line information are included in the Table 1 below. For stimulated control measurement, separate assay wells contain reference compound. Following incubation, the cells are lysed and the fluorescence acceptor (D2-labeled cAMP) and fluorescence donor (anti-cAMP antibody labeled with europium cryptate) were added. After 60 minutes at room temperature, the fluorescence transfer was measured at excitation wavelength 337 nm and emission wavelengths 620 and 665 nm using a microplate reader (Envision, Perkin Elmer). The cAMP concentration was determined by dividing the signal measured at 665 nm by that measured at 620 nm (ratio).
The results are expressed as a percent of the control response to 1 μM of the reference. The standard reference agonist is tested in each experiment at several concentrations to generate a concentration-response curve from which its EC50 value is calculated.
Target sequence in this assay (P33032 whole entry): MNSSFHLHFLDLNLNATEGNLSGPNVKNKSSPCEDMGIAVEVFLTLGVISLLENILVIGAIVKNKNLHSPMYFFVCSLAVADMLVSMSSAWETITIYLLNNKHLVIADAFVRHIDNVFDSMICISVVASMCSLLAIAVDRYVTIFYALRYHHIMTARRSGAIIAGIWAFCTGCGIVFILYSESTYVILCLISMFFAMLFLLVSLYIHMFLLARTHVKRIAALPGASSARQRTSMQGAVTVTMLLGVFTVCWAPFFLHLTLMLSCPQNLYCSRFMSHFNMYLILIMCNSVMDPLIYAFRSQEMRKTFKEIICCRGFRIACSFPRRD

[3] = test system: adult subjects with mild, moderate or severe dry eye disease; experiment: Phase 2 placebo-controlled study in dry eye disease, Controlled Adverse Environment; assay type: in vivo, human
From the text: Peptide No. 60 was utilized in the ophthalmologic solution drug product of Example 9.3 in a multi-center, double-masked, randomized, placebo-controlled, parallel-arm, Phase 2 study, which enrolled approximately 160 subjects (80 subjects per treatment arm). The objective of this study was to compare the safety and efficacy of Peptide No. 60 to its vehicle from Day 1 (baseline) to Day 85 (Week 12) in adult subjects with mild, moderate or severe dry eye disease in a Controlled Adverse Environment (CAE) setting. Both signs and symptoms were assessed at periodic visits.
During the screening period, two 90-minute exposures to the CAE were conducted to ascertain eligibility to enter the study. Subjects who qualify were randomized to receive study drug or placebo in a double-masked fashion for 12 weeks. Subjects self-administered drops three times per day (TID) and completed daily diary assessments as instructed.
At Visits 3 (Day 15, Week 2), 4 (Day 29, Week 4), 5 (Day 57, Week 8), and 6 (Day 85, Week 12), subjects were exposed to a CAE, with pre-CAE, during CAE (symptoms only) and post-CAE assessments of ocular signs and symptoms.

MC1r (HBL) = biological target: T3, MC1r (HBL) (Homo sapiens, UniProt Q01726); experiment: cAMP agonist functional assay, native MC1r in HBL cells; assay type: cell-based
T3 construct: B16-F10 (mouse) and HBL (human) cell lines that express native MC1 r; endogenous in cells; host or cells: HBL (human) cell line
Experimental: as §1

male C57BL/6JRj mice = experiment: Chronic dry-eye disease mouse model (desiccating environment plus scopolamine), corneal fluorescein staining; assay type: in vivo; conditions: for corneal fluorescein staining compared with untreated eyes: Day 24, after 12 days topical treatment
Experimental: To determine efficacy of peptide No. 60 for moderate, chronic dry-eye disease, male C57BL/6JRj mice were exposed to a controlled desiccating environment with transdermal administration of scopolamine (SiccaSystem™) to establish disease prior to any treatment. Corneal fluorescein staining was performed on study Days 10 and 12 (prior to treatment) and Day 24 (after 12 days of topical treatment with test compounds). Animals were randomized into 6 different experimental groups (n=12 for each treatment group, n=7 for untreated eyes) based on the fluorescein score on Day 12. Treatment arms included untreated and vehicle-treated animals and animals receiving Peptide No. 60 (3 different concentrations, 10^−2, 10^−3, and 10^−4 mg/mL) or the reference compound cyclosporin ophthalmic emulsion, sold under the trade name Restasis®.

MC1r (B16/F10) = biological target: T4, MC1r (B16/F10) (Mus musculus, UniProt Q01727); experiment: cAMP agonist functional assay, native MC1r in B16-F10 cells; assay type: cell-based
T4 construct: B16-F10 (mouse) and HBL (human) cell lines that express native MC1 r; endogenous in cells; host or cells: B16-F10 (mouse) cell line
Experimental: as §1

MC5r [4] = biological target: T2, MC5r; experiment: cAMP agonist functional assay at MC5r (not CEREP); assay type: cell-based
Target sequence in this assay (P33032 whole entry, species assumed): as the sequence (P33032 whole entry) above

MC3r = biological target: T5, MC3r (Homo sapiens, UniProt P41968); experiment: cAMP agonist functional assay, recombinant MC3r in HEK-293 cells; assay type: cell-based
T5 construct: expressed in transfected cells; host or cells: HEK-293
Experimental: as §1

T5 sequence (P41968 whole entry, species assumed): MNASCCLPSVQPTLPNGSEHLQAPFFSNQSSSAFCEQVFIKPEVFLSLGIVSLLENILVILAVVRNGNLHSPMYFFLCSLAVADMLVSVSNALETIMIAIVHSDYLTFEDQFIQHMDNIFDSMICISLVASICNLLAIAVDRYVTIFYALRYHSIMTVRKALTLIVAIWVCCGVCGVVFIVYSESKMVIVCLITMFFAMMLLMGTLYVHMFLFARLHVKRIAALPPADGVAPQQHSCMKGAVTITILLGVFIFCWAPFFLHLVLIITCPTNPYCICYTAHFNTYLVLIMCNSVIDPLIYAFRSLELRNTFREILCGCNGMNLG
T3 sequence (Q01726 whole entry): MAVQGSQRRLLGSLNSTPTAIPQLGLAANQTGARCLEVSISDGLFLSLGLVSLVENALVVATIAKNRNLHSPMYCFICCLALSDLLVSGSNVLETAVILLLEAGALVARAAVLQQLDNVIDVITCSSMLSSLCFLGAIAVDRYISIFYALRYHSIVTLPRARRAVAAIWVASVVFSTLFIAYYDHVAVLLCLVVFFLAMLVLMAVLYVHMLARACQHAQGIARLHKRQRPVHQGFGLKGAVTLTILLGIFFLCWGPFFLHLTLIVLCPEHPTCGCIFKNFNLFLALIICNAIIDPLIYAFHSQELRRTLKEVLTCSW
T1 sequence (P32245 whole entry): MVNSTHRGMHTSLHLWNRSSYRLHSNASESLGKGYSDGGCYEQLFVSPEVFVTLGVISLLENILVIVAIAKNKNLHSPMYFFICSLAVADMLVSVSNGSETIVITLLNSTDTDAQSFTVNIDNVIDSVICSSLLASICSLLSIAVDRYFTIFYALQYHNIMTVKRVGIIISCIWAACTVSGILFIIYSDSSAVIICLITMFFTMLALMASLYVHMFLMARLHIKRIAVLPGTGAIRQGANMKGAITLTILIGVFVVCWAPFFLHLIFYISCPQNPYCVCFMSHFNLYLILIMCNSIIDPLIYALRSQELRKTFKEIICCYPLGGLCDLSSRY
T4 sequence (Q01727 whole entry): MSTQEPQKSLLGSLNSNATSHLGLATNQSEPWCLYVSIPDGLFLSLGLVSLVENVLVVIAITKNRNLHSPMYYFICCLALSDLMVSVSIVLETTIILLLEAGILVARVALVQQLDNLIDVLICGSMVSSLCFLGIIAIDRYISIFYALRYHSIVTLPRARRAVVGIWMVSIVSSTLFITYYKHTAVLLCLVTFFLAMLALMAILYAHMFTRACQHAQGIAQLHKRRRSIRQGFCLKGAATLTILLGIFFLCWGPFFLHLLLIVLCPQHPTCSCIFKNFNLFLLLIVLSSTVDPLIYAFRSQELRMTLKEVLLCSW

- EC50 (MC4r; MC4r): 2 nM
- Fold Peptide No. 60 More Potent Than Bremelanotide (MC4r; MC4r): 0.5X
- Fold Peptide No. 60 More Potent Than α-MSH (MC4r; MC4r): 1.5X
- potency compared to α-MSH (in words) (MC4r; at MC4r): roughly comparable
- EC50 (MC5r [2]): 0.39 nM
- Fold Peptide No. 60 More Potent Than Bremelanotide (MC5r [2]): >25,000X (CEREP)
- Fold Peptide No. 60 More Potent Than α-MSH (MC5r [2]): 930X (CEREP)
- EC50 (MC1r (HBL); MC1r (HBL)): 0.13 nM
- Fold Peptide No. 60 More Potent Than Bremelanotide (MC1r (HBL); MC1r (HBL)): 0.78X
- Fold Peptide No. 60 More Potent Than α-MSH (MC1r (HBL); MC1r (HBL)): 69X
- potency compared to bremelanotide (in words) (MC1r (HBL); at MC1r): approximately equal potency
- potency compared to α-MSH (in words) (MC1r (HBL); at MC1r): greater relative potency
- EC50 (MC1r (B16/F10)): 0.02 nM
- Fold Peptide No. 60 More Potent Than Bremelanotide (MC1r (B16/F10)): 5X
- Fold Peptide No. 60 More Potent Than α-MSH (MC1r (B16/F10)): 11X
- EC50 (MC5r [4]; MC5r): 0.15 nM
- Fold Peptide No. 60 More Potent Than Bremelanotide (MC5r [4]; MC5r): 22,500X
- Fold Peptide No. 60 More Potent Than α-MSH (MC5r [4]; MC5r): 686X
- potency compared to α-MSH (in words) (MC5r [4]; at MC5r): greater relative potency
- EC50 (MC3r; MC3r): 0.77 nM
- Fold Peptide No. 60 More Potent Than Bremelanotide (MC3r; MC3r): 4X
- Fold Peptide No. 60 More Potent Than α-MSH (MC3r; MC3r): 3.9X
- potency compared to α-MSH (in words) (MC3r; at MC3r): roughly comparable
SMILES: CCCC[C@H](NC(C)=O)C(=O)N[C@H]1CCC(=O)NCCCCNC(=O)[C@H](Cc2c[nH]c3ccccc23)NC(=O)[C@H](CCCNC(=N)N)NC(=O)[C@@H](Cc2ccc(F)cc2)NC(=O)[C@H](Cc2c[nH]cn2)NC1=O [Peptide No. 60, Ac-Nle-cyclo(Glu-His-D-Phe(4-F)-Arg-Trp-NH—(CH2)4—NH)] (Ac-[Nle]EH[dPhe(4-F)]RW; linker 2-C via NH(CH2)4NH)
- presence in ocular tissues [1]: found in both the conjunctiva and lacrimal gland
- ocular, drug-related adverse events ([3]; Phase 2 study): no ocular, drug-related adverse events
- serious adverse events associated with study treatment ([3]; Phase 2 study): no serious adverse events associated with study treatment observed
- patients discontinued from the study ([3]; not deemed to be drug related): one
- corneal fluorescein staining compared with untreated eyes (male C57BL/6JRj mice; 10^−2 mg/ml, P<0.05, Dunn's multiple comparisons test): statistically significant lower corneal fluorescein staining
- corneal fluorescein staining compared with untreated eyes (male C57BL/6JRj mice; 10^−3 mg/ml, P<0.01, Dunn's multiple comparisons test): statistically significant lower corneal fluorescein staining
- corneal fluorescein staining compared with untreated eyes (male C57BL/6JRj mice; 10^−4 mg/ml, P<0.01, Dunn's multiple comparisons test): statistically significant lower corneal fluorescein staining
- corneal fluorescein staining/scores, Day 12 compared with Day 24 for the same eye (male C57BL/6JRj mice; doses between 10^−2 and 10^−4 mg/mL, topical): statistically significantly improvement of corneal fluorescein scores
